These results are taken from patent US10449257B2, “Self-assembled composite ultrasmall peptide-polymer hydrogels” (Agency for Science, Technology and Research, priority 2011, dated 2019).

Data set [1] in a line: Pilot study with 4 mice (10 days): blood cell counts after hydrogel implant. The class given is in vivo. The following applies: 30 μL gel implant. An excerpt:
There were no behavioral changes or weight loss following implantation for up to 2 months, and there was no significant difference in red or white blood cell counts or blood chemistry (liver and kidney function) between mice implanted with hydrogels and sham operated mice.

Data set [2] concerns plasmid DNA. Kind of data set: Composite peptide-DNA hydrogels: DNA loading, encapsulation and release. It counts as physicochemical. The following applies: for amount of DNA that can be incorporated into the composite hydrogel: plasmid DNA loading. The procedure:
Various peptides (AcLD6, i.e. Ac-LIVAGD, SEQ ID NO: 65; AcLK6, i.e. Ac-LIVAGK, SEQ ID NO: 66; AcLS6, i.e. Ac-LIVAGS, SEQ ID NO: 67) were used to encapsulate plasmid DNA, forming composite peptide-DNA hydrogels (A). […] When the composite hydrogels were incubated with DNAse, digested DNA fragments were not observed, compared to the naked DNA control. […] Potential applications include synthetic cell culture substrates that mediate sustained DNA, mRNA, siRNA and short hairpin RNA delivery (C).
The peptide sequence (particularly the polar head group) and concentration plays a significant role in determining the maximum amount of DNA that can be incorporated into the composite hydrogel.
Even after 10 days, at least 80% of the DNA loaded remained in composite hydrogel. In particular, the Ac-LIVAGK (L)-DNA hydrogel retained 95% of the DNA added. The release of the nucleic acid can potentially be modulated by the peptide composition.

Data set [3] concerns human derived adipose stem cells. Description: Subcutaneous implantation of hydrogels seeded with human derived adipose stem cells. The following applies: nude mice, after 45 days. It counts as in vivo. An excerpt:
FIG. 16. In vivo scaffold for adipose tissue regeneration Fat pad observed under the skeletal muscle layer in the region of the human adipose stem cell (hASC) implant 45 days post-implantation (A-C). The transplanted cells have the appearance of normal mature adipose tissue (D)—adipocytes with dark nuclei at edge, cells filled with fat.

A short description of data set [4]: Peptide stability studies (TGA, 1H-NMR, HPLC-MS after UV or autoclave treatment). The following applies: for decomposition by 1H-NMR: UV treated (2 h, 254 nm) or autoclaved (30 min, 120° C.); for degradation by HPLC-MS: following UV and autoclave treatment. The class given is physicochemical.
The mark [5] stands for this setting: SCID mice, listed as Ac-LIVAGK (L) gel.

Several values for one entry are separate records, joined by “and”; a condition that tells them apart may be missing. Equal entries are not always repeated. Where a SMILES comes first, the peptide text is derived from it. Where no end group is shown, it is not given here.

`CC[C@H](C)[C@H](NC(=O)[C@H](CC(C)C)NC(C)=O)C(=O)N[C@H](C(=O)N[C@@H](C)C(=O)NCC(=O)N[C@@H](CCCCN)C(=O)O)C(C)C` [AcLK6, Ac-LIVAGK] (Ac-LIVAGK-OH): in data set [1] (setting [5]), the erythrocytes was 9.29 M/uL and 11.33 M/uL; the lymphocytes was 0.88 K/uL and 0.9 K/uL; the monocytes is 0.22 K/uL and 0.12 K/uL; the thrombocytes was 0.607 M/uL and 0.978 M/uL. Moreover, in data set [1] (normal mouse), the basophils is 0.02 K/uL, the eosinophils is recorded as 0.11 K/uL, the erythrocytes turned out to be 10.65 M/uL and the lymphocytes is listed as 3.76 K/uL. Moreover, in data set [1] (normal mouse), the monocytes worked out at 0.42 K/uL, the neutrophils worked out at 1.6 K/uL and the thrombocytes is 0.833 M/uL. In addition, the “encapsulating and trapping of plasmid DNA” value in data set [2] (composite peptide-DNA hydrogel) was “extremely efficient in encapsulating and trapping the DNA”. The “release of the DNA” value in data set [2] (over the course of several days) was “minimal release of the DNA”. Besides, the “amount of DNA that can be incorporated into the composite hydrogel” value in data set [2] is “could integrate the highest concentration of DNA”. Also, the “adipose tissue formation under the implant site” value in data set [3] was “formation of fat pads”.
Turning to Ac-IVD (Ac-Ile-Val-Asp) [AcID3], in data set [4], the “decomposition by 1H-NMR” value is “do not decompose” and the “degradation by HPLC-MS” value is given as “minimal”.
Turning to Ac-LIVAGD [AcLD6], in data set [2], the “amount of DNA that can be incorporated into the composite hydrogel” value was “lowest threshold for DNA loading”. Besides, in data set [4], the “decomposition by 1H-NMR” value is reported as “do not decompose” and the “degradation by HPLC-MS” value was “minimal”.
